# How the values were obtained:
# [1] = target: T1, DNA polymerase catalytic subunit (Human cytomegalovirus (strain AD169), UniProt P08546); test: CMV and VZV Polymerase Assays
# T1 sequence (P08546 whole entry): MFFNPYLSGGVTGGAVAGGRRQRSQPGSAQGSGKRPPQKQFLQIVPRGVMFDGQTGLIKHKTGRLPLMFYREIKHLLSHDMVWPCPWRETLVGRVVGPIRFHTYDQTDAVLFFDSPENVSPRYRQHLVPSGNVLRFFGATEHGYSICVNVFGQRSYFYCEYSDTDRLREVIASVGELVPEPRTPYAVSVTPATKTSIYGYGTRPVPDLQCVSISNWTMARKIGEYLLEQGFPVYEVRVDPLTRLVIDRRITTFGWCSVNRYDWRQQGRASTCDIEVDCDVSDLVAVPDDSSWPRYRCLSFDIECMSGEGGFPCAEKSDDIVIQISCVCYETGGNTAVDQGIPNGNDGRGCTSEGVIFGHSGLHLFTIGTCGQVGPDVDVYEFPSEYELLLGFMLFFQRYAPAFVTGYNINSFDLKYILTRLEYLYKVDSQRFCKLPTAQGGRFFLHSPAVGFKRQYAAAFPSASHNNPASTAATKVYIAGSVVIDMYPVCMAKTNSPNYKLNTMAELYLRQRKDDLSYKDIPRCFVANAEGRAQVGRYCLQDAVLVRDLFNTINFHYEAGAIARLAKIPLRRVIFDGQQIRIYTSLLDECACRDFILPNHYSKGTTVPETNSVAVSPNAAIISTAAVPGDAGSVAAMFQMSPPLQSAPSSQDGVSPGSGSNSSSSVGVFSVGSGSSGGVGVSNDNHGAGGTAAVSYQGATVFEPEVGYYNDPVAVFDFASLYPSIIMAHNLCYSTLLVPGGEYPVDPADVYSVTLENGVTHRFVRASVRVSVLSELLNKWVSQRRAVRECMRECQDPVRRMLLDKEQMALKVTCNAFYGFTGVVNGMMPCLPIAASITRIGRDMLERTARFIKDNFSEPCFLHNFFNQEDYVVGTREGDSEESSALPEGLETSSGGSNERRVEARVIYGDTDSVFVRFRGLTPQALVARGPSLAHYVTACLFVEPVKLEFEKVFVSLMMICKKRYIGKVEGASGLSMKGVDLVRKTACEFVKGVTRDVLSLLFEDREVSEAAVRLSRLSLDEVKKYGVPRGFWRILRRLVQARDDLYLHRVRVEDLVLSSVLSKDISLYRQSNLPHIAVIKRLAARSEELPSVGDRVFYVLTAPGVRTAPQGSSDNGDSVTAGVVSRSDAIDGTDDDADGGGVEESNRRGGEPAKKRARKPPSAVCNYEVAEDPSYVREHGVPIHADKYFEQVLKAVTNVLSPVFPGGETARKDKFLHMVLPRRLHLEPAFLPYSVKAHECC
# Description: (§1) Human cytomegalovirus and varicella zoster virus DNA polymerases were expressed via baculovirus vector in SF21 cells and purified. Heterodimeric nucleic acid substrate used in the herpesvirus polymerase reactions were generated by annealing a 59-mer template to a 17-mer digoxigenin-labeled primer. Polymerase (HCMV final concentration of 0.2 nM; VZV final concentration of 0.4 nM) was combined with an inhibitor compound or DMSO in assay buffer (10 mM HEPES, pH 7.5, 25 mM KCl, 25 mM NaCl, 5 mM MgCl2, 5% glycerol, 0.67 mg/ml bovine serum albumin, and 1 mM tris(2-carboxyethyl)phosphine)), and this mixture was pre-incubated for 30 minutes at room temperature in 384-well microtiter plates. The polymerization reaction was initiated by the addition of template/primer substrate (final concentration: 1.6 nM), and dNTPs (final concentration: 24 nM dCTP, 24 nMdGTP, 16 nM dATP, 16 nM dTTP, and 0.8 nM biotin-dUTP). After a 60 minute incubation period at 37° C., the reactions were terminated using quench buffer (25 mM HEPES pH 7.5, 100 mM NaCl, 0.25% Tween-20, 12 mM EDTA, and 1 mg/ml bovine serum albumin). Incorporation of biotinylated UTP was detected with 2.5-5 μg/mL anti-DIG AlphaLISA acceptor beads and 5-10 μg/mL streptavidin AlphaLISA donor beads (PerkinElmer). […]
# [2] = target: T2, DNA polymerase catalytic subunit (Varicella-zoster virus (strain Dumas), UniProt P09252); test: CMV and VZV Polymerase Assays
# T2 sequence (P09252 whole entry): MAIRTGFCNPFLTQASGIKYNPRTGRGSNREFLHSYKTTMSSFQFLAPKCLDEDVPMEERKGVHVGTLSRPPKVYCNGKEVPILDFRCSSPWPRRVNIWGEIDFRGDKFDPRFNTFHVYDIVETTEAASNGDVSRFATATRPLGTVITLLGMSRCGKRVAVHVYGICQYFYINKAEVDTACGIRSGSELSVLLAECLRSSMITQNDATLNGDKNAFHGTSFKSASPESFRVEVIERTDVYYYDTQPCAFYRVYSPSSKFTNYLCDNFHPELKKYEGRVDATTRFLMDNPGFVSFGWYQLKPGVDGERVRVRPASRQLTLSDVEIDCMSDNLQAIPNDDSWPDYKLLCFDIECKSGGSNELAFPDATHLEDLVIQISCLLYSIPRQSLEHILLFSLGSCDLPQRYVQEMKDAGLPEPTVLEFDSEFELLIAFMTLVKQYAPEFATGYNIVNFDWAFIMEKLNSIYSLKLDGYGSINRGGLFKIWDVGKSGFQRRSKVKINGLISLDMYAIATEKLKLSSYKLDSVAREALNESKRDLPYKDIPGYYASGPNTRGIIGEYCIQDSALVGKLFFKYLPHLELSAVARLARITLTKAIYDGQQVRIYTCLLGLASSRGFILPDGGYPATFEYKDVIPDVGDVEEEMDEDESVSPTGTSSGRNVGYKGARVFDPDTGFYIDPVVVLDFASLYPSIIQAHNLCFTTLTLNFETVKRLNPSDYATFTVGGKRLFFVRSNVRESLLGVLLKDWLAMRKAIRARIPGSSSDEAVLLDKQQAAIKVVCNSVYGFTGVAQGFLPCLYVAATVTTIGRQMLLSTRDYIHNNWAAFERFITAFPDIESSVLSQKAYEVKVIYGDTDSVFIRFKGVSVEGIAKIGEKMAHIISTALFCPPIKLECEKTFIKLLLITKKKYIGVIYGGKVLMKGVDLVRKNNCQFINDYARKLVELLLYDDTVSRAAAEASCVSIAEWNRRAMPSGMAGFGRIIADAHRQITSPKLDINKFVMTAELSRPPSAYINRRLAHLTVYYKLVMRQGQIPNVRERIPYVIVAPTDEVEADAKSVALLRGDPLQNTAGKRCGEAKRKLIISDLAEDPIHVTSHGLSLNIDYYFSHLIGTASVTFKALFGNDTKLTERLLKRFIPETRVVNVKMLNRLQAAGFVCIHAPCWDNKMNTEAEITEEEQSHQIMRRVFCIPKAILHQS
# Description: as §1
smiles,measurement,setting,value
"O=C1OC[C@@H]2C[C@@H](Oc3cc4c(=O)n(Cc5ccc(Cl)cc5)cnc4nc3-c3cnco3)CCN12 [US12497405, Compound 37]",IC50,[1],1.1 nM
same,IC50,[2],0.22 nM

# Reference: BindingDB's records for patent US12497405 (Merck Sharp & Dohme, 2025)
